What was measured:
Assay in all cases: KINOMEscan competition binding
Conditions in all cases: compound 10.0 µM
RPS6KA5 KD1 (human) = RPS6KA5 KD1 (human) (UniProt O75582)
RPS6KA4 KD2 (human) = RPS6KA4 KD2 (human) (UniProt O75676)
STK17B (human) = STK17B (human) (UniProt O94768)
PTK6 (human) = PTK6 (human) (UniProt Q13882)
[1] = system: ABL1 (human), P00519 [F317L]
ABL1 (human) = ABL1 (human) (UniProt P00519)
STK11 (human) = STK11 (human) (UniProt Q15831)
ERN1 (human) = ERN1 (human) (UniProt O75460)
HUNK (human) = HUNK (human) (UniProt P57058)
ULK3 (human) = ULK3 (human) (UniProt Q6PHR2)
[2] = system: PIK3CA (human), P42336 [E545K]
[3] = system: ABL1 (human), P00519 [Y253F]
MARK1 (human) = MARK1 (human) (UniProt Q9P0L2)
PRKACA (human) = PRKACA (human) (UniProt P17612)
EPHB2 (human) = EPHB2 (human) (UniProt P29323)
MARK2 (human) = MARK2 (human) (UniProt Q7KZI7)
BMPR1B (human) = BMPR1B (human) (UniProt O00238)
HIPK3 (human) = HIPK3 (human) (UniProt Q9H422)
MAPK4 (human) = MAPK4 (human) (UniProt P31152)
CSNK1G1 (human) = CSNK1G1 (human) (UniProt Q9HCP0)
MAK (human) = MAK (human) (UniProt P20794)
PRKCQ (human) = PRKCQ (human) (UniProt Q04759)
MET (human) = MET (human) (UniProt P08581)
CDK11B (human) = CDK11B (human) (UniProt P21127)
STK35 (human) = STK35 (human) (UniProt Q8TDR2)
PRKD2 (human) = PRKD2 (human) (UniProt Q9BZL6)
STK38L (human) = STK38L (human) (UniProt Q9Y2H1)
RPS6KA2 KD1 (human) = RPS6KA2 KD1 (human) (UniProt Q15349)
MAP3K11 (human) = MAP3K11 (human) (UniProt Q16584)
NLK (human) = NLK (human) (UniProt Q9UBE8)
FER (human) = FER (human) (UniProt P16591)
ICK (human) = ICK (human) (UniProt Q9UPZ9)
STK25 (human) = STK25 (human) (UniProt O00506)
NEK6 (human) = NEK6 (human) (UniProt Q9HC98)
CSNK1D (human) = CSNK1D (human) (UniProt P48730)
FGFR3 (human) = FGFR3 (human) (UniProt P22607)
PRKCE (human) = PRKCE (human) (UniProt Q02156)
STK38 (human) = STK38 (human) (UniProt Q15208)
MAPK7 (human) = MAPK7 (human) (UniProt Q13164)
TYRO3 (human) = TYRO3 (human) (UniProt Q06418)
PIM3 (human) = PIM3 (human) (UniProt Q86V86)
LTK (human) = LTK (human) (UniProt P29376)

Chain of NLK (human) (Q9UBE8 whole entry, looked up): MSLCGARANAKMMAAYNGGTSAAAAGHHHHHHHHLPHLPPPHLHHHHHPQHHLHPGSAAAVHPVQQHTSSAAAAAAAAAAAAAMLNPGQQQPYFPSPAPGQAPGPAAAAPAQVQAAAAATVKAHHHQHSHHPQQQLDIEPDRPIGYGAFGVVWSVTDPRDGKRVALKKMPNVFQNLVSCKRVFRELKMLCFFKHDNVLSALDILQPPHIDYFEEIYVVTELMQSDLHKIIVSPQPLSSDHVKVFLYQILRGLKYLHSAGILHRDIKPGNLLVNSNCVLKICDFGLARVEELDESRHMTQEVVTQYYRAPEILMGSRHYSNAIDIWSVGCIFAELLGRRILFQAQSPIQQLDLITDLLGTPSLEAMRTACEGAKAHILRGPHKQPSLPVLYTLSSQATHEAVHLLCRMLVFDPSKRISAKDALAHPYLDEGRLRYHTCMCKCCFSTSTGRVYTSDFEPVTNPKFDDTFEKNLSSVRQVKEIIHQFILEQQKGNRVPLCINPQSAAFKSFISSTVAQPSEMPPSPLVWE
Chain of RPS6KA2 KD1 (human) (Q15349 whole entry, looked up): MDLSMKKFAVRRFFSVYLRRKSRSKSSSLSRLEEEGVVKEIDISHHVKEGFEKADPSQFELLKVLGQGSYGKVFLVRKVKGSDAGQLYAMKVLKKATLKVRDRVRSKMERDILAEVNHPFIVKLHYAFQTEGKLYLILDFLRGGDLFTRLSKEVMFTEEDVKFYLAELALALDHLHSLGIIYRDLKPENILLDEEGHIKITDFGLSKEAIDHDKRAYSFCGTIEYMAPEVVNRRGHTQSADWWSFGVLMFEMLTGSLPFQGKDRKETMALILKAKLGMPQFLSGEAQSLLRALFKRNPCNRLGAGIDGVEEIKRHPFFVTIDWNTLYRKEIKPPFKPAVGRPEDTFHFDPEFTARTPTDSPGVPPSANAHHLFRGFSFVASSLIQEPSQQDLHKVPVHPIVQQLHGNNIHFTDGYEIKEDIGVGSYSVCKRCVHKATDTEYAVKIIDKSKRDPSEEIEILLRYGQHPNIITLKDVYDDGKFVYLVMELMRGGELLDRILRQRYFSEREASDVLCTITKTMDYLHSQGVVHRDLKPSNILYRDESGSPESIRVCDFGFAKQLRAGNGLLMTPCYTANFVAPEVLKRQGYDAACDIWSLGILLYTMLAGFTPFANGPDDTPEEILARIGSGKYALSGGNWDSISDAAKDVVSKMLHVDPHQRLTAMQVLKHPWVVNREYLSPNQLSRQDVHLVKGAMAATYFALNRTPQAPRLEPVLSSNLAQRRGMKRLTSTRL
Chain of TYRO3 (human) (Q06418 whole entry, looked up): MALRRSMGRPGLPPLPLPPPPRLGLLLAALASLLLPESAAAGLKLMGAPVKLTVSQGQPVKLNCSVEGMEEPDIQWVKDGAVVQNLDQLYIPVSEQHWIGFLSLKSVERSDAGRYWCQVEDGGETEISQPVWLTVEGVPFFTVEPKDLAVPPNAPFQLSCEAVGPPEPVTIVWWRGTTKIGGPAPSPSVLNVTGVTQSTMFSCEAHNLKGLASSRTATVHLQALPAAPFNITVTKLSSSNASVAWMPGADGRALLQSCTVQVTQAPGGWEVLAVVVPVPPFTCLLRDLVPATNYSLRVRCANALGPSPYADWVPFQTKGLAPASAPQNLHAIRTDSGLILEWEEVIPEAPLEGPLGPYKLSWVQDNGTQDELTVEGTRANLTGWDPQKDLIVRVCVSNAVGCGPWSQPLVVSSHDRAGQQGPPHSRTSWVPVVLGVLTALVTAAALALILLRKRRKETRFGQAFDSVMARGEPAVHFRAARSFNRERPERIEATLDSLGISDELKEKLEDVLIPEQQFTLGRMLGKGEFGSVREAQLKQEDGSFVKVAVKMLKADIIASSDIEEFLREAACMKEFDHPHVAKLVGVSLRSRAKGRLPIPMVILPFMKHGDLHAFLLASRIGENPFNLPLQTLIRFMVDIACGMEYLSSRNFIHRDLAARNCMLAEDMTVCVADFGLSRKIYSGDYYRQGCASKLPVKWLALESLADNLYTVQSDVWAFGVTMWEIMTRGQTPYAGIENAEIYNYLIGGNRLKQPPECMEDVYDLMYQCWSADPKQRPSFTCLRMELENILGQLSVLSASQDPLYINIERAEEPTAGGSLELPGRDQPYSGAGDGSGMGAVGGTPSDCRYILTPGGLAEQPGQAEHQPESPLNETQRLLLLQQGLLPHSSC
Chain of MET (human) (P08581 whole entry, looked up): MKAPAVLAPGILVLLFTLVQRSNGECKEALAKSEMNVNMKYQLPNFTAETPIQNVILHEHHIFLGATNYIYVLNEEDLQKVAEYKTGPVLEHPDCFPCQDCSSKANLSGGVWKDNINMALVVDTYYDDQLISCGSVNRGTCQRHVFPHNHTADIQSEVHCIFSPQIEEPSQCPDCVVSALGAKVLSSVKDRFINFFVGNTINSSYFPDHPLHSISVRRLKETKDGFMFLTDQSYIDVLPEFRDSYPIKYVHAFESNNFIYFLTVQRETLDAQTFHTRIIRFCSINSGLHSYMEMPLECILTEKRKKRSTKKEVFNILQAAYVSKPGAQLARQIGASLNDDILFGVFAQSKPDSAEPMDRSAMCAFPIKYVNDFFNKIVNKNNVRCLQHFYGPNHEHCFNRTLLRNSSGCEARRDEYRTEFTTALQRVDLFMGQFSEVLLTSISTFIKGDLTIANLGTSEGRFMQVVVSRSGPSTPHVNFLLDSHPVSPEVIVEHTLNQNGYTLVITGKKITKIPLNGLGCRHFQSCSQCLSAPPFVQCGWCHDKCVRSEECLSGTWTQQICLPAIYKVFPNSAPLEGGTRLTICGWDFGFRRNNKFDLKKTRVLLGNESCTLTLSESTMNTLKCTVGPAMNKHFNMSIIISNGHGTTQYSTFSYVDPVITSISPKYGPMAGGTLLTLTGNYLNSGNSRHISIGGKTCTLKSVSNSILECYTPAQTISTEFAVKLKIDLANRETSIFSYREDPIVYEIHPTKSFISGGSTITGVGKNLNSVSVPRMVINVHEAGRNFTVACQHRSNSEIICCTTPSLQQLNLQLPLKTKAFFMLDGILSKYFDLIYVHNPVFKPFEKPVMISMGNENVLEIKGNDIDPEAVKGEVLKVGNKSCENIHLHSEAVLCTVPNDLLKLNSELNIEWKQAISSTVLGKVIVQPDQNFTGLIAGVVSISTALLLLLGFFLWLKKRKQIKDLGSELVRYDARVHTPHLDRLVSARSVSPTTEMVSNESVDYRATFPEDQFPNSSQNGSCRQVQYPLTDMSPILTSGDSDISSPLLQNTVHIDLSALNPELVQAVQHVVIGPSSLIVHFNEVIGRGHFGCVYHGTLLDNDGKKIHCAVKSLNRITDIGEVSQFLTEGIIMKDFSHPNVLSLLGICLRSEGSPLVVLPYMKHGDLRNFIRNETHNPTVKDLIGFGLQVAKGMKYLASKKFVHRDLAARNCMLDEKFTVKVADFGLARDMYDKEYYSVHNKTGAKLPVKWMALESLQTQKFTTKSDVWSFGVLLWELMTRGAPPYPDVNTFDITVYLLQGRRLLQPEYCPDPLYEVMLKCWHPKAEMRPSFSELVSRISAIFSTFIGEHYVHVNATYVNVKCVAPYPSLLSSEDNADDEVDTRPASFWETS
Chain of FER (human) (P16591 whole entry, looked up): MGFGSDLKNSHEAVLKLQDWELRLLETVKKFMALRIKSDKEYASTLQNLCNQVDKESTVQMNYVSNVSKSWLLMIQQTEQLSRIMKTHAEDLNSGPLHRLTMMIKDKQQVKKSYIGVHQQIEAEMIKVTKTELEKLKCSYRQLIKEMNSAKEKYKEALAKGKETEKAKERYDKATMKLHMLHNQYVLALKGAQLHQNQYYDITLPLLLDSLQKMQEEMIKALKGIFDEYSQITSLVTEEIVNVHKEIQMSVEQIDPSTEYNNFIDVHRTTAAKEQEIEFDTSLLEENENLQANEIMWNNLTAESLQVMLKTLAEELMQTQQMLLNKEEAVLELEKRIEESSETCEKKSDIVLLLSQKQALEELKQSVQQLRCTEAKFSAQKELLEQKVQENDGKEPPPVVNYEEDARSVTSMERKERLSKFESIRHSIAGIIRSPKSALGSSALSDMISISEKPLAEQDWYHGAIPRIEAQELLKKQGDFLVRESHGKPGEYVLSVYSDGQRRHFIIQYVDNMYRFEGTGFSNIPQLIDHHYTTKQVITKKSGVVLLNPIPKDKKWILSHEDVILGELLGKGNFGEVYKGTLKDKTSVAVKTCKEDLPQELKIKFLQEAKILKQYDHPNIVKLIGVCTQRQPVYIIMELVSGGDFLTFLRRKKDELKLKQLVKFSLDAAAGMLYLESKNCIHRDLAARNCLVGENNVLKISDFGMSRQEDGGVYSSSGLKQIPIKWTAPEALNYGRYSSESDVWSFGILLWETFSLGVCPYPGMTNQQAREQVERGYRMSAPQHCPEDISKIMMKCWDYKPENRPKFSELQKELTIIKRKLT
Chain of STK17B (human) (O94768 whole entry, looked up): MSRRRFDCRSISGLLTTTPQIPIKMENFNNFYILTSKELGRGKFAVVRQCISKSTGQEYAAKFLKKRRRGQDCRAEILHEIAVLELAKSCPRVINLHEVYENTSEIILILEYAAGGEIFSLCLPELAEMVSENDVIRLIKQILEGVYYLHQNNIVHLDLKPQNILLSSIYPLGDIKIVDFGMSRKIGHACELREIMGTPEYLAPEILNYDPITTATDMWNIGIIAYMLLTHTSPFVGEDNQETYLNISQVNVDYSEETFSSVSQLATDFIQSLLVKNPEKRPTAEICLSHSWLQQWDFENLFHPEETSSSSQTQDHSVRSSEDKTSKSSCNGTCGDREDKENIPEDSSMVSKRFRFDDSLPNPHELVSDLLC

Work on `O=C1Nc2cc(Br)ccc2/C1=C1/Nc2ccccc2/C1=N\O` yielded a kinase still bound, per cent of control (RPS6KA5 KD1 (human)) of 47%, a kinase still bound, per cent of control (RPS6KA4 KD2 (human)) of 44% and a kinase still bound, per cent of control (STK17B (human)) of 0%. It also gave a kinase still bound, per cent of control (PTK6 (human)) of 84%, a kinase still bound, per cent of control [1] of 5.2% and a kinase still bound, per cent of control (ABL1 (human)) of 2.3%. The kinase still bound, per cent of control (STK11 (human)) was 2.7%, the kinase still bound, per cent of control (ERN1 (human)) was 51% and the kinase still bound, per cent of control (HUNK (human)) was 79%. It also gave a kinase still bound, per cent of control (ULK3 (human)) of 1.3%, a kinase still bound, per cent of control [2] of 100% and a kinase still bound, per cent of control [3] of 4.2%. For the same compound, the kinase still bound, per cent of control (MARK1 (human)) was 38%, the kinase still bound, per cent of control (PRKACA (human)) was 100% and the kinase still bound, per cent of control (EPHB2 (human)) was 77%. It also gave a kinase still bound, per cent of control (MARK2 (human)) of 19%, a kinase still bound, per cent of control (BMPR1B (human)) of 50% and a kinase still bound, per cent of control (HIPK3 (human)) of 12%. For the same compound, the kinase still bound, per cent of control (MAPK4 (human)) was 100%, the kinase still bound, per cent of control (CSNK1G1 (human)) was 39% and the kinase still bound, per cent of control (MAK (human)) was 0.8%. It also gave a kinase still bound, per cent of control (PRKCQ (human)) of 55%, a kinase still bound, per cent of control (MET (human)) of 86% and a kinase still bound, per cent of control (CDK11B (human)) of 100%. It also gave a kinase still bound, per cent of control (STK35 (human)) of 60%, a kinase still bound, per cent of control (PRKD2 (human)) of 100% and a kinase still bound, per cent of control (STK38L (human)) of 48%. It also gave a kinase still bound, per cent of control (RPS6KA2 KD1 (human)) of 2.2%, a kinase still bound, per cent of control (MAP3K11 (human)) of 5.6% and a kinase still bound, per cent of control (NLK (human)) of 88%. It also gave a kinase still bound, per cent of control (FER (human)) of 100%, a kinase still bound, per cent of control (ICK (human)) of 0.1% and a kinase still bound, per cent of control (STK25 (human)) of 18%. It also gave a kinase still bound, per cent of control (NEK6 (human)) of 85%, a kinase still bound, per cent of control (CSNK1D (human)) of 21% and a kinase still bound, per cent of control (FGFR3 (human)) of 12%. It also gave a kinase still bound, per cent of control (PRKCE (human)) of 90%, a kinase still bound, per cent of control (STK38 (human)) of 86% and a kinase still bound, per cent of control (MAPK7 (human)) of 100%. The kinase still bound, per cent of control (TYRO3 (human)) was 91%, the kinase still bound, per cent of control (PIM3 (human)) was 30% and the kinase still bound, per cent of control (LTK (human)) was 100%.
`COc1ccc(CNC(=O)Nc2ncc([N+](=O)[O-])s2)cc1` gave a kinase still bound, per cent of control (RPS6KA5 KD1 (human)) of 100%, a kinase still bound, per cent of control (RPS6KA4 KD2 (human)) of 85% and a kinase still bound, per cent of control (STK17B (human)) of 74%. It also gave a kinase still bound, per cent of control (PTK6 (human)) of 92%, a kinase still bound, per cent of control [1] of 100% and a kinase still bound, per cent of control (ABL1 (human)) of 100%. For the same compound, the kinase still bound, per cent of control (STK11 (human)) was 83%, the kinase still bound, per cent of control (ERN1 (human)) was 100% and the kinase still bound, per cent of control (HUNK (human)) was 81%. For the same compound, the kinase still bound, per cent of control (ULK3 (human)) was 95%, the kinase still bound, per cent of control [2] was 100% and the kinase still bound, per cent of control [3] was 100%. The kinase still bound, per cent of control (MARK1 (human)) was 100%, the kinase still bound, per cent of control (PRKACA (human)) was 96% and the kinase still bound, per cent of control (EPHB2 (human)) was 15%. It also gave a kinase still bound, per cent of control (MARK2 (human)) of 100%, a kinase still bound, per cent of control (BMPR1B (human)) of 89% and a kinase still bound, per cent of control (HIPK3 (human)) of 100%. For the same compound, the kinase still bound, per cent of control (MAPK4 (human)) was 100%, the kinase still bound, per cent of control (CSNK1G1 (human)) was 66% and the kinase still bound, per cent of control (MAK (human)) was 94%. For the same compound, the kinase still bound, per cent of control (PRKCQ (human)) was 100%, the kinase still bound, per cent of control (MET (human)) was 92% and the kinase still bound, per cent of control (CDK11B (human)) was 100%. For the same compound, the kinase still bound, per cent of control (STK35 (human)) was 87%, the kinase still bound, per cent of control (PRKD2 (human)) was 93% and the kinase still bound, per cent of control (STK38L (human)) was 100%. For the same compound, the kinase still bound, per cent of control (RPS6KA2 KD1 (human)) was 100%, the kinase still bound, per cent of control (MAP3K11 (human)) was 100% and the kinase still bound, per cent of control (NLK (human)) was 72%. The kinase still bound, per cent of control (FER (human)) was 100%, the kinase still bound, per cent of control (ICK (human)) was 87% and the kinase still bound, per cent of control (STK25 (human)) was 100%. For the same compound, the kinase still bound, per cent of control (FGFR3 (human)) was 100%, the kinase still bound, per cent of control (PRKCE (human)) was 100% and the kinase still bound, per cent of control (STK38 (human)) was 100%. The kinase still bound, per cent of control (MAPK7 (human)) was 97%, the kinase still bound, per cent of control (TYRO3 (human)) was 93% and the kinase still bound, per cent of control (PIM3 (human)) was 83%. For the same compound, the kinase still bound, per cent of control (LTK (human)) was 100%.

Source: the kinase profiling compilation of Christmann-Franck et al. (2016)
